Assay [1] deals with CD4 and CD8 T cells from human peripheral blood. Nature of the assay: T cell activation in PBMC, flow cytometry with TriMAP/FlowSOM. It is filed as cell-based. As to conditions: 10^-7 M, 24 h, anti-CD3 and anti-CD28, compared to ethanol treated cells. On the procedure: Human peripheral blood mononuclear cells (PBMC) from two healthy individuals were obtained from a pre-existing respository. Their use was approved by the University of Alabama at Birmingham Institutional Review Board (Human Subject Assurance Number FWA00005960) as an exempt protocol #4 (Dr C. Raman, P.I.). […] Informed consent is waived in accord with 45CFR46.116 (d). In 48 well plates, 0.5×10^6 PBMC/well were cultured in RPMI1640 containing, 5% charcoal adsorbed FBS and antibiotics and T cells were activated using […] anti-CD3 (clone 145-2C11) and 1 μg/ml anti-CD28 (clone 37.51) for 24 h (Janjetovic Z, et. al., (2021) Endocrinology 162(1), Chaiprasongsuk A, et. al., (2020) Free Radic Biol Med 155 87-98, Slominski A T, et. al., (2011) Am J Physiol Cell Physiol 300(3) C526-41, McGuire D J, et. al., (2014) Eur J Immunol 44(4) 1137-42, Sestero C M, et. al., (2012) J Immunol 189(6) 2918-30). The culture was treated with 10^-7 M 20S(OH)D3, 20S,25(OH)2D3, 20S,23S(OH)2D3, 20S,23R(OH)2D3 or 1α,25(OH)2D3 (Sigma-Aldrich, St. Louis, MO, USA) dissolved in ethanol and diluted in culture medium at the same time of addition of anti-CD3 and anti-CD28. The vehicle control comprised of 0.1% ethanol. At the end of assay the cells were stained with antibodies to CD4 (clone RPA-T4, BV-421), CD19 (clone HB19, BV-510), CD14 (clone HCD14, Alexa 700), CD137 (clone 4B4-1, BV605), CD8a (clone RPA-T8, FITC), ICOS (clone C398.4A, PE/Dazzle), PD1 (clone NAT105, PE), CD80 (clone 2D10, PerCP/Cy5.5), OX40 (clone ACT35, PE/Cy7), CD69 (clone FN50, APC), HLA-DR (clone L243, APC/Fire 750). All antibodies were from Biolegend except anti-CD8 was from Thermo Fisher. The stained cells were analyzed using a CytoFLEX (Beckman Coulter) flow cytometer.
For unbiased analysis of the multidimensional data, acomputational algorithm-based approaches was utilized (Quintelier K, et. al., (2021) Nature Protocols 16(8) 3775-3801). The flow cytometry standard (FCS) data files from each individual and treatment (two individuals, six treatments including ethanol, a total of 12 data files) were processed through the following workflow—compensation, gating on live cells, gating for single cells and subtraction of CD19+(B cells) and CD14+(monocytes). B cells and monocytes were removed from the analysis because only T cells (CD4+ and CD8+) are activated by anti-CD3 and anti-CD28. After these initial gating steps, a key word was added to each of the 12 FCS files, down sampled to 50,000 events/sample and concatenated. Down sampling ascertains that each sample is equally weighted, and concatenation ascertains that statistical analysis is applied equally. The concatenated files were first subjected to TriMAP analysis, a computational algorithm that clusters populations based on triplet relatedness followed by FlowSOM algorithm-based clustering (Quintelier K, et. al., (2021) Nature Protocols 16(8) 3775-3801). To perform these analyses, plugins within FlowJo (BD, CA, USA) were used.
T cells in peripheral blood from two healthy individuals were activated with anti-CD3 and anti-CD28 in the absence (ethanol) or presence of 10^−7 M of each of the vitamin D3 secosteroids for 24 h. The cells were stained for lineage markers (CD4, CD8, CD19, CD14) and a panel of activation induced markers (CD69, ICOS, OX40, CD137, PD1, HLADR) and expression data were collected using a flow cytometer. The gating strategy was live, single cell followed by CD4 and CD8 T cell populations. […]
Background: In flow cytometry, cells or beads pass a laser one at a time.

The test system of assay [2] is CYP24A1 (downstream target of the activated VDR). Nature of the assay: CYP24A1 expression, qPCR of downstream enzymes. The format is cell-based. The note with it: FIG. 8C. As to the method: RNA isolation and reverse transcription were performed as described previously (Slominski A T, et. al., (2021) Sci Rep 11(1) 8002). Quantitative RT-PCR was carried out using Sybr green Master Mix (Thermo Scientific, Waltham, MA), in triplicates as previously described (Slominski A T, et. al., (2021) Sci Rep 11(1) 8002; Janjetovic Z, et. al., (2014) J Pineal Res 57(1) 90-102). Human epidermal keratinocytes (HEKn) isolated from foreskin of white neonates were cultured until the third passage before treatment as described in the literature (Chaiprasongsuk A, et. al., (2019) Redox Biol 24 101206; Janjetovic Z, et. al., (2009) PloS one 4(6) e5988). Cells were treated with vitamin D3 derivatives for 8 h or 24 h and harvested for RNA isolation. Approximately 300 ng of RNA was used for cDNA synthesis and an equal amount of cDNA was used for PCR reactions. Cyclophilin B or GAPDH was used as an internal control. Primers sequences are listed in (Chaiprasongsuk A, et. al., (2020) Free Radic Biol Med 155 87-9845, Slominski A T, et. al., (2017) Sci Rep 7(1) 11434). Reactions were done in triplicate.
To better define the properties of the newly synthesized secosteroids, their activities on the VDR, AhR and LXR were tested by performing functional assays which were further validated by qPCR of downstream enzymes (FIGS. 8A-F) and molecular modeling (FIG. 9-13). Binding affinities of top-scored docking complexes of vitamin D3 hydroxy derivatives with VDR, AhR, LXRs (LXRα, LXRβ) and RORs (RORα, RORγ) from molecular docking are presented in FIG. 9, known ligands for each receptor were used as controls.

The results in this text go back to patent publication US20240327320A1, “NOVEL ROUTES OF CHEMICAL SYNTHESIS OF 20S(OH)D3, 20S,25(OH)2D3, 20S,23S(OH)2D3, AND 20S,23R(OH)2D3 AND THEIR MODIFICATION OF THE IMMUNE ACTIVITY OF PBMCS” (United State Government as represen ted by the Department …, priority 2023, published 2024).

For the compound `C=C1CC[C@H](O)C/C1=C/C=C1\CCC[C@@]2(C)[C@H]1CC[C@@H]2[C@@](C)(O)CCCC(C)C` [20S(OH)D3, (20S)-20-Hydroxyvitamin D3], the “CD4 T cells of population 4 (down modulated CD4, increased CD69 and ICOS)” value in assay [1] is on record as “increased the proportion of cells with population 4 phenotype”.

Regarding `C=C1CC[C@H](O)C/C1=C/C=C1\CCC[C@@]2(C)[C@H]1CC[C@@H]2[C@@](C)(O)C[C@H](O)CC(C)C` [20S,23R(OH)2D3, (20S,23R)-20,23-Dihydroxyvitamin D3], in assay [2], the CYP24A1 expression result is “significantly less expression than 1α,25(OH)2D3”. In the case of `C=C1CC[C@H](O)C/C1=C/C=C1\CCC[C@@]2(C)[C@H]1CC[C@@H]2[C@@](C)(O)C[C@@H](O)CC(C)C` [20S,23S(OH)2D3, (20S,23S)-20,23-Dihydroxyvitamin D3], in assay [1], the “CD4 T cells of population 4 (down modulated CD4, increased CD69 and ICOS)” value is reported as “fewer cells”. The CYP24A1 expression result in assay [2] is listed as “significantly less expression than 1α,25(OH)2D3”. On the same counts, the results for `C=C1CC[C@H](O)C/C1=C/C=C1\CCC[C@@]2(C)[C@H]1CC[C@@H]2[C@@](C)(O)CCCC(C)(C)O` [20S,25(OH)2D3, (20S)-20,25-Dihydroxyvitamin D3] are “fewer cells” and “much greater stimulation of CYP24A1 expression than 20S(OH)D3”.
